# Measurements from patent publication US4013663A, “Isoquinoline compounds” (priority 1974, dated 1977).
# Tests used:
# in vivo = conditions: mouse, in vivo, iv
# Experimental: (§1) The investigations on toxicity were carried out by intravenous administration to albino mice.
# [1] = tested on: β-receptors of the blood vessel system; assay: β-receptor blocking activity on the blood vessel system (blood pressure measurement in the same animal); type: in vivo, guinea pig; conditions: ratio of effective doses from Table 1, given as 1: x
# Experimental: (§2) The particular β-receptor blocking activity on the heart in comparison to that on the blood vessel system was measured by the taking of an EKG or by measurement of the blood pressure in the same animal (guinea pigs) [cf. J. R. C. Baird et al., J. Pharm. Pharmac. […] For investigation of broncho-constrictor activity, the inhibition of the isoprenalin effect on the bronchial system of the guinea pig is employed [cf. H. Konzett et al., Arch. exp. Path. Pharmak.
# [2] = tested on: β-receptors of the bronchial system; assay: inhibition of the isoprenalin effect on the bronchial system; type: in vivo, guinea pig; conditions: for dosage relationships in comparison with the comparison compound: Table 2, versus F; for influence of heart-active doses on the bronchial system: at heart-active doses; for Heart: Bronchial System (activity relationship, heart = 1): ratio of effective doses from Table 1, given as 1: x
# Experimental: as §2
# albino mice = assay: in vivo; conditions: Table 3
# Experimental: as §1
Structure (SMILES),LD50 (in vivo) [mg/kg],"Heart: Blood vessels (activity relationship, heart = 1) [1]",dosage relationships in comparison with the comparison compound [2],influence of heart-active doses on the bronchial system [2],"Heart: Bronchial System (activity relationship, heart = 1) [2]","toxicity and activity in comparison with E, F, and G (albino mice)"
"CC(C)NCC(O)COc1cccc2[nH]ccc12 (stereo not shown) [Substance E, prindolol, reference compound]",22.6,,,,,
"COc1cc2c(cc1OCC(O)CNC(C)C)CCN(C(C)=O)C2 (stereo not shown) [Substance B, 2-acetyl-1,2,3,4-tetrahydro-6-(2-hydroxy-3-isopropylamino-propoxy)-7-methoxy-isoquinoline]",,1.8,essentially more favorable than for the comparison compound,does not lead to a negative influence on the bronchial system,> 7.2,
"CC(C)NCC(O)COc1cccc2ccccc12 (stereo not shown) [Substance F, propranolol, reference compound]",,1,,,0.15,
"CC(=O)Nc1ccc(OCC(O)CNC(C)C)cc1 (stereo not shown) [Substance G, practolol, reference compound]",121,,,,,
"CC(=O)N1CCc2cc(OCC(O)CNC(C)C)ccc2C1 (stereo not shown) [Substance A, 2-acetyl-1,2,3,4-tetrahydro-6-(2-hydroxy-3-isopropylamino-propoxy)-isoquinoline]",,6.2,essentially more favorable than for the comparison compound,does not lead to a negative influence on the bronchial system,5.5,
"CC(C)(C)NCC(O)COc1cccc2c1CCN(C=O)C2 (stereo not shown) [Substance D, 2-formyl-1,2,3,4-tetrahydro-5-(2-hydroxy-3-tert.-butylaminopropoxy)-isoquinoline]",128,,,,,less toxic at higher activity
"CC(C)NCC(O)COc1cccc2c1CCN(C=O)C2 (stereo not shown) [Substance C, 2-formyl-1,2,3,4-tetrahydro-5-(2-hydroxy-3-isopropylamino-propoxy)-isoquinoline]",148,,,,,less toxic at higher activity
